Experimental data from paper PMC7343282, “Tissue Distribution of Several Series of Cationic Surfactants in Rainbow Trout (Oncorhynchus mykiss) Following Exposure via Water” (Environmental Science & Technology, 2020).

Test system: rainbow trout (Oncorhynchus mykiss)
Assay: Contribution of tissues to fish body burden
Assay type: in vivo
Details: for Contribution of Blood to the fish's body burden / Contribution of Gills to the fish's body burden / Contribution of Liver to the fish's body burden / Contribution of Mucus to the fish's body burden / Contribution of Other tissue (all apart from blood, liver, gills and skin; muscle concentration assumed) to body burden / Contribution of Skin to the fish's body burden: fraction; for % contribution to body burden, Gills / % contribution to body burden, Mucus / % contribution to body burden, Liver / % contribution to body burden, Skin / % contribution to body burden, Muscle: mean across fish, Figure 1; for % contribution to body burden, Liver / % contribution to body burden, Skin / % contribution to body burden, Muscle: Q10, Q14 maximum estimates; for % contribution to body burden, Muscle: includes all tissues not specifically analyzed
Source text: To calculate the quantity of the test chemical in the different tissues, the amount of each tissue in the fish was estimated and multiplied by the concentration in that tissue. The test chemical quantities in the different tissues were then summed to give the body burden in each fish. The total weight of the fish and the weight of the liver and gills were available from the dissection (Table S16). For skin and mucus, the estimated outer surface area of the fish was used. We note that the distinction between mucus and skin is an operational one determined by the extraction method; mucus can be viewed as a more readily extracted fraction of the test chemical residues at the fish surface. The volume of blood was taken as 0.0495 mL g^–1 fish.[30] The remaining tissue (difference between the weight of the whole fish and the weight of liver, gills, skin, and blood) was assumed to have the concentration measured in the muscle. The contribution of the different tissues to the body burden is given for each fish in Table S17, and the average contribution across all fish is plotted in Figure 1. All of the tissues, with the exception of blood, contribute at least 10% of the body burden for at least half of the test chemicals. There is no consistent negative correlation between the fraction of chemical associated with blood, muscle, and liver (tissues where the residue originates entirely from systemic uptake) and alkyl chain length (a measure of hydrophobicity). Thus, although adsorption to fish surfaces appears to play a significant role, its contribution to body burden cannot be simply predicted from surfactant hydrophobicity. In the following, we examine uptake in individual tissues.

CCCCCCCCCN [P9, Nonylamine]
Contribution of Blood to the fish's body burden (Fish #1): 0.016 | Contribution of Gills to the fish's body burden (Fish #1): 0.36 | Contribution of Liver to the fish's body burden (Fish #1): 0.09 | Contribution of Mucus to the fish's body burden (Fish #1): 0.38 | Contribution of Other tissue (all apart from blood, liver, gills and skin; muscle concentration assumed) to body burden (Fish #1): 0.08 | Contribution of Skin to the fish's body burden (Fish #1): 0.07 | Contribution of Blood to the fish's body burden (Fish #2): 0.017 | Contribution of Gills to the fish's body burden (Fish #2): 0.26 | Contribution of Liver to the fish's body burden (Fish #2): 0.20 | Contribution of Mucus to the fish's body burden (Fish #2): 0.23 | Contribution of Other tissue (all apart from blood, liver, gills and skin; muscle concentration assumed) to body burden (Fish #2): 0.14 | Contribution of Skin to the fish's body burden (Fish #2): 0.15 | Contribution of Blood to the fish's body burden (Fish #3): 0.021 | Contribution of Liver to the fish's body burden (Fish #3): 0.17 | Contribution of Mucus to the fish's body burden (Fish #3): 0.20 | Contribution of Other tissue (all apart from blood, liver, gills and skin; muscle concentration assumed) to body burden (Fish #3): 0.14 | Contribution of Skin to the fish's body burden (Fish #3): 0.16 | Contribution of Blood to the fish's body burden (Fish #4): 0.010 | Contribution of Gills to the fish's body burden (Fish #4): 0.28 | Contribution of Liver to the fish's body burden (Fish #4): 0.19 | Contribution of Mucus to the fish's body burden (Fish #4): 0.28 | Contribution of Other tissue (all apart from blood, liver, gills and skin; muscle concentration assumed) to body burden (Fish #4): 0.12 | Contribution of Skin to the fish's body burden (Fish #4): 0.11 | Contribution of Blood to the fish's body burden (Fish #5): 0.012 | Contribution of Gills to the fish's body burden (Fish #5): 0.35 | Contribution of Liver to the fish's body burden (Fish #5): 0.08 | Contribution of Mucus to the fish's body burden (Fish #5): 0.36 | Contribution of Other tissue (all apart from blood, liver, gills and skin; muscle concentration assumed) to body burden (Fish #5): 0.12 | Contribution of Skin to the fish's body burden (Fish #5): 0.09 | Contribution of Blood to the fish's body burden (Fish #6): 0.018 | Contribution of Gills to the fish's body burden (Fish #6): 0.26 | Contribution of Liver to the fish's body burden (Fish #6): 0.08 | Contribution of Mucus to the fish's body burden (Fish #6): 0.35 | Contribution of Other tissue (all apart from blood, liver, gills and skin; muscle concentration assumed) to body burden (Fish #6): 0.10 | Contribution of Skin to the fish's body burden (Fish #6): 0.19 | Contribution of Blood to the fish's body burden (Mean): 0.016 | Contribution of Gills to the fish's body burden (Mean): 0.30 | Contribution of Liver to the fish's body burden (Mean): 0.14 | Contribution of Mucus to the fish's body burden (Mean): 0.30 | Contribution of Other tissue (all apart from blood, liver, gills and skin; muscle concentration assumed) to body burden (Mean): 0.12 | Contribution of Skin to the fish's body burden (Mean): 0.13 | % contribution to body burden, Gills: 30% | % contribution to body burden, Mucus: 30% | % contribution to body burden, Liver: 14% | % contribution to body burden, Skin: 13% | % contribution to body burden, Muscle: 12%

CCCCCCCCCCCCN [P12, Dodecylamine]
Contribution of Blood to the fish's body burden (Fish #1): 0.014 | Contribution of Gills to the fish's body burden (Fish #1): 0.34 | Contribution of Liver to the fish's body burden (Fish #1): 0.16 | Contribution of Mucus to the fish's body burden (Fish #1): 0.19 | Contribution of Other tissue (all apart from blood, liver, gills and skin; muscle concentration assumed) to body burden (Fish #1): 0.15 | Contribution of Skin to the fish's body burden (Fish #1): 0.14 | Contribution of Blood to the fish's body burden (Fish #2): 0.015 | Contribution of Gills to the fish's body burden (Fish #2): 0.24 | Contribution of Liver to the fish's body burden (Fish #2): 0.22 | Contribution of Mucus to the fish's body burden (Fish #2): 0.12 | Contribution of Other tissue (all apart from blood, liver, gills and skin; muscle concentration assumed) to body burden (Fish #2): 0.16 | Contribution of Skin to the fish's body burden (Fish #2): 0.25 | Contribution of Blood to the fish's body burden (Fish #3): 0.017 | Contribution of Liver to the fish's body burden (Fish #3): 0.20 | Contribution of Mucus to the fish's body burden (Fish #3): 0.11 | Contribution of Other tissue (all apart from blood, liver, gills and skin; muscle concentration assumed) to body burden (Fish #3): 0.16 | Contribution of Skin to the fish's body burden (Fish #3): 0.23 | Contribution of Blood to the fish's body burden (Fish #4): 0.011 | Contribution of Gills to the fish's body burden (Fish #4): 0.26 | Contribution of Liver to the fish's body burden (Fish #4): 0.24 | Contribution of Mucus to the fish's body burden (Fish #4): 0.14 | Contribution of Other tissue (all apart from blood, liver, gills and skin; muscle concentration assumed) to body burden (Fish #4): 0.16 | Contribution of Skin to the fish's body burden (Fish #4): 0.19 | Contribution of Blood to the fish's body burden (Fish #5): 0.010 | Contribution of Gills to the fish's body burden (Fish #5): 0.32 | Contribution of Liver to the fish's body burden (Fish #5): 0.12 | Contribution of Mucus to the fish's body burden (Fish #5): 0.17 | Contribution of Other tissue (all apart from blood, liver, gills and skin; muscle concentration assumed) to body burden (Fish #5): 0.20 | Contribution of Skin to the fish's body burden (Fish #5): 0.18 | Contribution of Blood to the fish's body burden (Fish #6): 0.018 | Contribution of Gills to the fish's body burden (Fish #6): 0.26 | Contribution of Liver to the fish's body burden (Fish #6): 0.16 | Contribution of Mucus to the fish's body burden (Fish #6): 0.18 | Contribution of Other tissue (all apart from blood, liver, gills and skin; muscle concentration assumed) to body burden (Fish #6): 0.12 | Contribution of Skin to the fish's body burden (Fish #6): 0.26 | Contribution of Blood to the fish's body burden (Mean): 0.014 | Contribution of Gills to the fish's body burden (Mean): 0.28 | Contribution of Liver to the fish's body burden (Mean): 0.19 | Contribution of Mucus to the fish's body burden (Mean): 0.15 | Contribution of Other tissue (all apart from blood, liver, gills and skin; muscle concentration assumed) to body burden (Mean): 0.16 | Contribution of Skin to the fish's body burden (Mean): 0.21 | % contribution to body burden, Gills: 28% | % contribution to body burden, Mucus: 15% | % contribution to body burden, Liver: 19% | % contribution to body burden, Skin: 21% | % contribution to body burden, Muscle: 16%

CCCCCCCCCCCCCN [P13, tridecylamine]
Contribution of Blood to the fish's body burden (Fish #1): 0.013 | Contribution of Gills to the fish's body burden (Fish #1): 0.27 | Contribution of Liver to the fish's body burden (Fish #1): 0.24 | Contribution of Mucus to the fish's body burden (Fish #1): 0.14 | Contribution of Other tissue (all apart from blood, liver, gills and skin; muscle concentration assumed) to body burden (Fish #1): 0.17 | Contribution of Skin to the fish's body burden (Fish #1): 0.17 | Contribution of Blood to the fish's body burden (Fish #2): 0.014 | Contribution of Gills to the fish's body burden (Fish #2): 0.27 | Contribution of Liver to the fish's body burden (Fish #2): 0.23 | Contribution of Mucus to the fish's body burden (Fish #2): 0.10 | Contribution of Other tissue (all apart from blood, liver, gills and skin; muscle concentration assumed) to body burden (Fish #2): 0.17 | Contribution of Skin to the fish's body burden (Fish #2): 0.21 | Contribution of Blood to the fish's body burden (Fish #3): 0.016 | Contribution of Liver to the fish's body burden (Fish #3): 0.16 | Contribution of Mucus to the fish's body burden (Fish #3): 0.09 | Contribution of Other tissue (all apart from blood, liver, gills and skin; muscle concentration assumed) to body burden (Fish #3): 0.24 | Contribution of Skin to the fish's body burden (Fish #3): 0.20 | Contribution of Blood to the fish's body burden (Fish #4): 0.013 | Contribution of Gills to the fish's body burden (Fish #4): 0.35 | Contribution of Liver to the fish's body burden (Fish #4): 0.15 | Contribution of Mucus to the fish's body burden (Fish #4): 0.11 | Contribution of Other tissue (all apart from blood, liver, gills and skin; muscle concentration assumed) to body burden (Fish #4): 0.17 | Contribution of Skin to the fish's body burden (Fish #4): 0.21 | Contribution of Blood to the fish's body burden (Fish #5): 0.013 | Contribution of Gills to the fish's body burden (Fish #5): 0.28 | Contribution of Liver to the fish's body burden (Fish #5): 0.23 | Contribution of Mucus to the fish's body burden (Fish #5): 0.09 | Contribution of Other tissue (all apart from blood, liver, gills and skin; muscle concentration assumed) to body burden (Fish #5): 0.17 | Contribution of Skin to the fish's body burden (Fish #5): 0.23 | Contribution of Blood to the fish's body burden (Fish #6): 0.013 | Contribution of Gills to the fish's body burden (Fish #6): 0.26 | Contribution of Liver to the fish's body burden (Fish #6): 0.27 | Contribution of Mucus to the fish's body burden (Fish #6): 0.09 | Contribution of Other tissue (all apart from blood, liver, gills and skin; muscle concentration assumed) to body burden (Fish #6): 0.17 | Contribution of Skin to the fish's body burden (Fish #6): 0.20 | Contribution of Blood to the fish's body burden (Mean): 0.014 | Contribution of Gills to the fish's body burden (Mean): 0.28 | Contribution of Liver to the fish's body burden (Mean): 0.21 | Contribution of Mucus to the fish's body burden (Mean): 0.10 | Contribution of Other tissue (all apart from blood, liver, gills and skin; muscle concentration assumed) to body burden (Mean): 0.18 | Contribution of Skin to the fish's body burden (Mean): 0.20 | % contribution to body burden, Gills: 28% | % contribution to body burden, Mucus: 10% | % contribution to body burden, Liver: 21% | % contribution to body burden, Skin: 20% | % contribution to body burden, Muscle: 18%
